According to patent US7078385B2, “Methods of inhibiting angiogenesis with fragments and homologs of troponin subunit I” (Boston Life Sciences, Inc., priority 1996, dated 2006):
No end group written: not given here.

Key:
[1] = system: bFGF-stimulated capillary EC; experiment: Inhibition of bFGF-stimulated capillary EC proliferation by fragments of troponin I (Example 13, Table 2); assay type: cell-based, bovine; conditions: for IC50: read-out: Approx. IC50
Method: On day one, 5,000 bovine capillary endothelial cells in DMEM/10% CS/1% GPS are plated onto each well of a 96-well pregelatinized tissue culture plate. On day two, the cell media is changed to DMEM, 2% CS, 1% GPS, 0.5% BSA (complete medium), supplemented with 10 μl of 1 mg/ml “cold” thymidine per 50 ml of medium. On day three, test samples in complete medium are added in duplicate. Additionally, […] (bFGF) is added to each well except for the appropriate controls, to a final concentration of 0.2 ng/well. On day four, 5 μl of 1:13 diluted ^3H-Thymidine stock is added to each well and the plate is incubated for 5–6 hours. Following incubation, the medium is aspirated, and the remainder is rinsed once with PBS, then twice for 5 minutes each with methanol followed by two rinses each for 10 minutes with 5% TCA. The cells are then rinsed with water three times, dried to the plate, and 100 μl of 0.3 N NaOH is added to each well. The contents of the well are then transferred to the scintillation counter vials and 3 mls of Ecolume added to each vial. Samples are then counted on the scintillation counter.
Recombinant peptides corresponding to fragments of rabbit (rb) TnI (SEQ ID NO:10) (FIG. 12) were tested for ability to inhibit bFGF-stimulated capillary EC as described above in Section 6, Examples 2 and 8. The rbTnI fragments (SEQ ID NOS:11–15) were prepared according to Jha et al., 1996, Biochemistry 35(34):11026–11035.

[2] = system: embryonic neovascularization of the chick chorioallantoic membrane; conditions: cited from earlier work; for Lowest reported dose effective as combination in the CAM assay: combined with hydrocortisone (60 μg)
[3] = system: bovine capillary endothelial cells (BCE), bFGF-stimulated; experiment: bFGF-stimulated capillary endothelial cell proliferation, colorimetric acid phosphatase assay (Example 3); assay type: cell-based
Method: A quick and sensitive screen for inhibition of EC proliferation in response to treatment with a troponin subunit, homolog, or derivative of the invention involves incubating the cells in the presence of varying concentrations of the inhibitor and determining the number of endothelial cells in culture based on the colorimetric determination of cellular acid phosphatase activity, described by Connolly, et al., 1986, J. Anal. Biochem. 152:136–140.
The effect of troponin on the proliferation of capillary endothelial cells (EC) was measured in an assay which measures the ability of this protein to interfere with stimulation of endothelial cell proliferation by a known angiogenesis factor (bFGF).
Capillary endothelial cells and Balb/c 3T3 cells were separately plated (2×10^3/0.2 ml) onto gelatin-coated 96-well tissue culture dishes on day 1. On day 2, cells were refed with Dulbecco's modified Eagle's medium (Gibco) with 5% calf serum (Hyclone) (DMEM/5) and bFGF (10 ng/ml) (FGF Co.) and increasing concentrations of one or more troponin subunits. […] Wells containing phosphate buffered saline (PBS) (Gibco) alone and PBS+bFGF were included as controls. On day 5, media was removed and cells were washed with PBS and lysed in 100 μl of buffer containing 0.1 M sodium acetate (pH 5.5), 0.1% Triton X-100™ and 100 mM p-nitrophenyl phosphate (Sigma 104 phosphatase substrate). After incubation for 2 hours at 37° C., the reaction was stopped with the addition of 10 μl of 1 N NAOH. Color development was determined at 405 nm using a rapid microplate reader (Bio-Tek).
Percent inhibition was determined by comparing the cell number of wells exposed to stimulus with those exposed to stimulus and troponin subunits.

122–181: recombinant rabbit TnI fragment, C′ region, aa 122–181 (LKALLGSKHKVCMDLRANLKQVKKEDTEKERDLRDVGDWRKNIEEKSGMEGRKKMFESES; listed as Oryctolagus cuniculus)
Approx. IC50 μg/well [1]: >0.3 μg/well
% I (Percent Inhibition) of EC proliferation ([1]; 0.01 μg/well): −1%
% I (Percent Inhibition) of EC proliferation ([1]; 0.025 μg/well): −6%
% I (Percent Inhibition) of EC proliferation ([1]; 0.1 μg/well): 20%
% I (Percent Inhibition) of EC proliferation ([1]; 0.3 μg/well): 23%
IC50 [1]: > 200 nM

B-cyclodextrin tetradecasulfate
Lowest reported dose effective as combination in the CAM assay [2]: 14 µg

CMDLRANL [134–141]
Approx. IC50 μg/well [1]: 150 μg/well

DAMLKALL [120–127]
Approx. IC50 μg/well [1]: >>50 μg/well

DLRANLKQ [136–143]
Approx. IC50 μg/well [1]: >>50 μg/well

DLRGKFKRPPLRRVRMSADA [102–121]
Approx. IC50 μg/well [1]: >>20 μg/well

EDMNQKLFDLRGKFKRPPLR [94–113]
Approx. IC50 μg/well [1]: >>20 μg/well

GSKHKVCM [128–135]
Approx. IC50 μg/well [1]: 150 μg/well

KALLGSKH [124–131]
Approx. IC50 μg/well [1]: >>50 μg/well

KFKRPPLRRVRMSADAMLKA [102–125]
Approx. IC50 μg/well [1]: >>20 μg/well

KHKVCMDL [130–137]
Approx. IC50 μg/well [1]: 50 μg/well

KLFDLRGKFKRPPLRRV [98–114]
Approx. IC50 μg/well [1]: >>40 μg/well

KVCMDLRA [132–139]
Approx. IC50 μg/well [1]: 75 μg/well

LLGSKHKV [126–133]
Approx. IC50 μg/well [1]: >>50 μg/well

MLKALLGS [122–129]
Approx. IC50 μg/well [1]: >>50 μg/well

PPLRRVRMSADAMLKALLGS [110–129]
Approx. IC50 μg/well [1]: >>20 μg/well

QKLFDLRGKFKRPPLRRVRM [98–117]
Approx. IC50 μg/well [1]: >>20 μg/well

RMSADAML [116–123]
Approx. IC50 μg/well [1]: >>50 μg/well

RVRMSADAMLKALLGSKHKV [114–133]
Approx. IC50 μg/well [1]: >>20 μg/well

SADAMLKA [118–125]
Approx. IC50 μg/well [1]: >>50 μg/well

SADAMLKALLGSKHKVCMDL [118–137]
Approx. IC50 μg/well [1]: 40 μg/well

Troponin C: troponin subunit C, calcium binding polypeptide of the troponin complex; human fast twitch sequence SEQ ID NO:1
IC50 [3]: 278 nM
Percent inhibition of BCE proliferation ([3]; 280 nM): 54%
Percent inhibition of BCE proliferation ([3]; 1.4 μM): 86%
Percent inhibition of BCE proliferation ([3]; 2.8 μM): 83%
Percent inhibition of BCE proliferation ([3]; 5.6 μM (20 μg/well)): 100%

Troponin T: troponin subunit T, tropomyosin binding polypeptide of the troponin complex; SEQ ID NO:3
IC50 [3]: 2140 nM
Percent inhibition of BCE proliferation ([3]; 1.6 μM): 23%
Percent inhibition of BCE proliferation ([3]; 3.3 μM): 62%
Inhibition of bFGF-stimulated EC proliferation (in words) ([3]; 1 and 5 μg/well): not

heparin
Lowest reported dose effective as combination in the CAM assay [2]: 50 µg

protamine
Reported dose of angiogenesis inhibitor tested alone in the CAM assay [2]: 50 µg

B1: platelet factor IV: previously described angiogenesis inhibitor (Taylor et al. 1982) (protein, UniProt P02776 32-101, looked up)
Platelet factor 4: EAEEDGDLQCLCVKTTSQVRPRHITSLEVIKAGPHCPTAQLIATLKNGRKICLDLQAPLYKKIIKKLLES
Reported dose of angiogenesis inhibitor tested alone in the CAM assay [2]: 10 µg

B2: 96–181: recombinant rabbit TnI fragment, carboxy terminus (C′) and I′ region, aa 96–181 (protein, listed as Oryctolagus cuniculus)
chain: NQKLFDLRGKFKRPPLRRVRMSADAMLKALLGSKHKVCMDLRANLKQVKKEDTEKERDLRDVGDWRKNIEEKSGMEGRKKMFESES
% I (Percent Inhibition) of EC proliferation ([1]; 0.01 μg/well): 25%
% I (Percent Inhibition) of EC proliferation ([1]; 0.025 μg/well): 28%
% I (Percent Inhibition) of EC proliferation ([1]; 0.1 μg/well): 54%
% I (Percent Inhibition) of EC proliferation ([1]; 0.3 μg/well): 48%

B3: 1–120: recombinant rabbit TnI fragment, N′ and inhibitory (I′) region, aa 1–120 (protein, listed as Oryctolagus cuniculus)
chain: GDEEKRNRAITARRQHLKSVMLQIAATELEKEEGRREAEKQNYLAEHCPPLSLPGSMAEVQELCKQLHAKIDAAEEEKYDMEIKVQKSSKELEDMNQKLFDLRGKFKRPPLRRVRMSADA
Approx. IC50 μg/well [1]: >>0.3 μg/well
% I (Percent Inhibition) of EC proliferation ([1]; 0.01 μg/well): 6%
% I (Percent Inhibition) of EC proliferation ([1]; 0.025 μg/well): 0%
% I (Percent Inhibition) of EC proliferation ([1]; 0.1 μg/well): 12%
% I (Percent Inhibition) of EC proliferation ([1]; 0.3 μg/well): 17%
IC50 [1]: > 100 nM

B4: Troponin I: troponin subunit I, inhibitory polypeptide of the troponin complex; human fast twitch sequence SEQ ID NO:2 (protein, listed as Homo sapiens)
chain: MGDEEKRNRAITARRQHLKSVMLQIAATELEKEESRREAEKQNYLAEHCPPLHIPGSMSEVQELCKQLHAKIDAAEEEKYDMEVRVQKTSKELEDMNQKLFDLRGKFKRPPLRRVRMSADAMLKALLGSKHKVCMDLRANLKQVKKEDTEKERDLRDVGDWRKNIEEKSGMEGRKKMFESES
IC50 [3]: 1140 nM
Percent inhibition of BCE proliferation ([3]; 240 nM): 33%
Percent inhibition of BCE proliferation ([3]; 1.2 μM (5 μg/well), 1.2 µM): 46%
Percent inhibition of BCE proliferation ([3]; 1.2 μM (5 μg/well), listed as full-length TnI, 1.2 µM): approximately 46%
Inhibition of bFGF-stimulated BCE proliferation (in words) ([3]; 10 μg/well): inhibition was not observed

B5: 1–94: recombinant rabbit TnI fragment, amino-terminal (N′) region, aa 1–94 (protein, listed as Oryctolagus cuniculus)
chain: GDEEKRNRAITARRQHLKSVMLQIAATELEKEEGRREAEKQNYLAEHCPPLSLPGSMAEVQELCKQLHAKIDAAEEEKYDMEIKVQKSSKELED
Approx. IC50 μg/well [1]: >0.3 μg/well
% I (Percent Inhibition) of EC proliferation ([1]; 0.01 μg/well): −12%
% I (Percent Inhibition) of EC proliferation ([1]; 0.025 μg/well): 6%
% I (Percent Inhibition) of EC proliferation ([1]; 0.1 μg/well): 31%
% I (Percent Inhibition) of EC proliferation ([1]; 0.3 μg/well): 28%
IC50 [1]: > 100 nM
